Measured values: patent US6878713B2, “Generation triple-targeting, chiral, broad-spectrum antimicrobial 7-substituted piperidino-quinolone carboxylic acid derivatives, their preparation, compositions and use as medicaments” (Wockhardt Limited, priority 2001, dated 2005)
Converted amounts (≈) assume the structure as drawn.

Experiments:
[1] = test system: Fluoroquinolone Sensitive Strains; experiment: In-vitro antimicrobial test (MIC, two-fold serial agar dilution, NCCLS), Table 17; assay type: cell-based
Description: The test method was in accordance with the standard NCCLS protocol (Methods for Dilution Antimicrobial Susceptibility Tests for Bacteria that grow Aerobicially, Approved Standards, M7-A5, Fifth Edition, January 2000).
The antibacterial activities (minimum inhibitory concentration: MIC, […]) were determined by using the two-fold serial agar dilution method recommended by NCCLS. The media used for preculture and main culture were Tryptic Soya broth (Difco) and Mueller Hinton medium (Difco), respectively. The Mueller Hinton agar was supplemented with 5% sheep blood for streptococci. Overnight cultures were diluted with buffered saline (pH 7.2) to the final cell density of 5×10^6-10^7 CFU/ml, and each bacterial suspension was applied with a replicator (Denley's multipoint inoculator, UK) onto a series of Mueller-Hinton agar plates containing antibacterial agents at various concentrations. Final inoculum was approximately 10^4 CFU/spot. The plates were incubated for 18 hrs at 37° C. The MIC was defined as the lowest concentration of an antibacterial agent that inhibits the development of visible microbial growth on agar.

[2] = Escherichia coli, ATCC25922, E. coli ATCC 25922
[3] = Staphylococcus aureus, ATCC 25923 / MSSA, MSSA ATCC 25923
[4] = Streptococcus pneumoniae, ATCC49619, S. pneumoniae ATCC 49619

Row | Compound | MIC [1, 2] [µg/mL] | MIC [1, 3] [µg/mL] | melting point | MIC [1, 4] [µg/mL] | also measured
1 | Cc1c(N2CCC(O)C(C)C2)c(F)cc2c(=O)c(C(=O)O)cn(C3CC3)c12 (mixture of isomers) [Compound 92, cis/trans-1-Cyclopropyl-6-fluoro-8-methyl-7-(4-hydroxy-3-methyl-1-piperidinyl)-1,4-dihydro-4-oxo-quinoline-3-carboxylic acid] | – | – | – | – | MICs ([1]; E. coli ATCC 25922): 0.05 µg/mL; MICs ([1]; MSSA ATCC 25923): 0.1 µg/mL
2 | COc1c(N2CCC(N)C(C)(C)C2)c(F)cc2c(=O)c(C(=O)O)cn(C3CC3)c12 (racemic) [Compound 17, (±)-1-Cyclopropyl-6-fluoro-1,4-dihydro-8-methoxy-7-(4-amino-3,3-dimethyl-1-piperidinyl)-4-oxo-quinoline-3-carboxylic acid] | 0.4 (≈ 0.991 µM) | 0.4 (≈ 0.991 µM) | – | – | –
3 | COc1c(N2CCC(NC(=O)OCc3ccccc3)C(C)(C)C2)c(F)cc2c(=O)c(C(=O)O)cn(C3CC3)c12 (racemic) [Compound 32, (±)-1-Cyclopropyl-6-fluoro-1,4-dihydro-8-methoxy-7-(4-benzyloxycarbonylamino-3,3-dimethyl-1-piperidinyl)-4-oxo-quinoline-3-carboxylic acid] | – | – | 158 to 160 °C | – | –
4 | Cc1c(N2CCC(N)C(C)(C)C2)c(F)cc2c(=O)c(C(=O)O)cn(C3CC3)c12 (racemic) [Compound 101, (±)-1-Cyclopropyl-6-fluoro-1,4-dihydro-8-methyl-7-(4-amino-3,3-dimethyl-1-piperidinyl)-4-oxo-quinoline-3-carboxylic acid] | – | – | 198 to 200 °C | – | –
5 | Cc1c(N2CCC(N)C(C)(C)C2)c(F)c(N)c2c(=O)c(C(=O)O)cn(C3CC3)c12 (racemic) [Compound 131, (±)-5-Amino-1-cyclopropyl-6-fluoro-1,4-dihydro-8-methyl-7-(4-amino-3,3-dimethyl-1-piperidinyl)-4-oxo-quinoline-3-carboxylic acid] | 1.56 (≈ 3.88 µM) | 0.8 (≈ 1.99 µM) | – | – | –
6 | Cc1c(N2CCC(N)C(C)(C)C2)c(F)cc2c(=O)c(C(=O)O)cn(C3CC3)c12.Cl (racemic) [Example 97] | – | – | 242 to 244 °C | – | –
7 | COc1c(N2CC[C@@H](N)[C@H](C)C2)c(F)cc2c(=O)c(C(=O)O)cn(C3CC3)c12 (relative stereo) [Compound 2, trans-1-Cyclopropyl-6-fluoro-1,4-dihydro-8-methoxy-7-(4-amino-3-methyl-1-piperidinyl)-4-oxo-quinoline-3carboxylic acid] | – | – | 240 to 242 °C | – | –
8 | COc1c(N2CC[C@H](N)[C@H](C)C2)c(F)cc2c(=O)c(C(=O)O)cn(C3CC3)c12 (relative stereo) [Compound 5, cis-1-Cyclopropyl-6-fluoro-1,4-dihydro-8-methoxy-7-(4-amino-3-methyl-1-piperidinyl)-4-oxo-quinoline-3-carboxylic acid] | – | – | 246 to 250 °C | – | –
9 | Cc1c(N2CC[C@H](N)[C@H](C)C2)c(F)cc2c(=O)c(C(=O)O)cn(C3CC3)c12 (relative stereo) [Compound 99, cis-1-Cyclopropyl-6-fluoro-1,4-dihydro-8-methyl-7-(4-amino-3-methyl-1-piperidinyl)-4-oxo-quinoline-3-carboxylic acid] | – | – | 224 to 228 °C | – | –
10 | CCc1c(N2CC[C@H](O)[C@H](C)C2)c(F)cc2c(=O)c(C(=O)O)cn(C3CC3)c12 (relative stereo) [Compound 120, cis-1-Cyclopropyl-6-fluoro-8-ethyl-7-(4-hydroxy-3-methyl-1-piperidinyl)-1,4-dihydro-4-oxo-quinoline-3-carboxylic acid] | 0.8 (≈ 2.06 µM) | 0.1 (≈ 0.257 µM) | – | 0.8 (≈ 2.06 µM) | –
11 | Cc1c(N2CCC(N)C(C)(C)C2)c(F)cc2c(=O)c(C(=O)O)cn(C3CC3)c12 (single isomer, unassigned; (-)) [Compound 109, (−)-1-Cyclopropyl-6-fluoro-1,4-dihydro-8-methyl-7-(4-amino-3,3-dimethyl-1-piperidinyl)-4-oxo-quinoline-3-carboxylic acid] | – | – | 195 to 198 °C | – | –
12 | Cc1c(N2CCC(N)C(C)(C)C2)c(F)c(N)c2c(=O)c(C(=O)O)cn(C3CC3)c12 (single isomer, unassigned; (-)) [Compound 133, (−)-5-Amino-1-cyclopropyl-6-fluoro-1,4-dihydro-8-methyl-7-(4-amino-3,3-dimethyl-1-piperidinyl)-4-oxo-quinoline-3-carboxylic acid] | 0.4 (≈ 0.994 µM) | 0.025 (≈ 0.0621 µM) | – | 0.2 (≈ 0.497 µM) | –
13 | CNC1CCN(c2c(F)cc3c(=O)c(C(=O)O)cn(C4CC4)c3c2OC)CC1C (stereo not drawn) [Compound 8, 1-Cyclopropyl-6-fluoro-1,4-dihydro-8-methoxy-7-(4-methylamino-3-methyl-1-piperidinyl)-4-oxo-quinoline-3-carboxylic acid] | – | – | 240 °C (dec.) | – | –
14 | CCNC1CCN(c2c(F)cc3c(=O)c(C(=O)O)cn(C4CC4)c3c2OC)CC1C (stereo not drawn) [Compound 10, 1-Cyclopropyl-6-fluoro-1,4-dihydro-8-methoxy-7-(4-ethylamino-3-methyl-1-piperidinyl)-4-oxo-quinoline-3-carboxylic acid] | – | – | 160 to 162 °C | – | –
15 | COc1c(N2CCC(NC3CC3)C(C)C2)c(F)cc2c(=O)c(C(=O)O)cn(C3CC3)c12 (stereo not drawn) [Compound 11, 1-Cyclopropyl-6-fluoro-1,4-dihydro-8-methoxy-7-(4-cyclopropylamino-3-methyl-1-piperidinyl)-4-oxo-quinoline-3-carboxylic acid] | – | – | 182 to 184 °C | – | –
16 | COc1c(N2CCC(N(C)C)C(C)C2)c(F)cc2c(=O)c(C(=O)O)cn(C3CC3)c12 (stereo not drawn) [Compound 13, 1-Cyclopropyl-6-fluoro-1,4-dihydro-8-methoxy-7-(4-dimethylamino-3-methyl-1-piperidinyl)-4-oxo-quinoline-3-carboxylic acid] | – | – | 180 to 182 °C | – | –
17 | COc1c(N2CCC(NC(C)=O)C(C)(C)C2)c(F)cc2c(=O)c(C(=O)O)cn(C3CC3)c12 (stereo not drawn) [Compound 29, 1-Cyclopropyl-6-fluoro-1,4-dihydro-8-methoxy-7-(4-acetylamino-3,3-dimethyl-1-piperidinyl)-4-oxo-quinoline-3-carboxylic acid] | – | – | 194 to 196 °C | – | –
18 | CNC1CCN(c2c(F)cc3c(=O)c(C(=O)O)cn(C4CC4)c3c2OC)CC1(C)C (stereo not drawn) [Compound 35, 1-Cyclopropyl-6-fluoro-1,4-dihydro-8-methoxy-7-(4-methylamino-3,3-dimethyl-1-piperidinyl)-4-oxo-quinoline-3-carboxylic acid] | – | – | 246 to 248 °C | – | –
19 | CCNC1CCN(c2c(F)cc3c(=O)c(C(=O)O)cn(C4CC4)c3c2OC)CC1(C)C (stereo not drawn) [Compound 36, 1-Cyclopropyl-6-fluoro-1,4-dihydro-8-methoxy-7-(4-ethylamino-3,3-dimethyl-1-piperidinyl)-4-oxo-quinoline-3-carboxylic acid] | – | – | 230 to 232 °C | – | –
20 | COc1c(N2CCC(NC3CC3)C(C)(C)C2)c(F)cc2c(=O)c(C(=O)O)cn(C3CC3)c12 (stereo not drawn) [Compound 37, 1-Cyclopropyl-6-fluoro-1,4-dihydro-8-methoxy-7-(4-cyclopropylamino-3,3-dimethyl-1-piperidinyl)-4-oxo-quinoline-3-carboxylic acid] | – | – | 190 to 192 °C | – | –
21 | CCn1cc(C(=O)O)c(=O)c2cc(F)c(N3CC(C)C(NC)C(C)C3)c(OC)c21 (stereo not drawn) [Compound 46, 1-Ethyl-6-fluoro-1,4-dihydro-8-methoxy-7-(4-methylamino-3,5-dimethyl-1-piperidinyl)-4-oxo-quinoline-3-carboxylic acid] | 0.1 (≈ 0.247 µM) | 0.05 (≈ 0.123 µM) | – | 0.1 (≈ 0.247 µM) | –
22 | COc1c(N2CC(C)C(NC3CC3)C(C)C2)c(F)cc2c(=O)c(C(=O)O)cn(C3CC3)c12 (stereo not drawn) [Compound 48, 1-Cyclopropyl-6-fluoro-1,4-dihydro-8-methoxy-7-(4-cyclopropylamino-3,5-dimethyl-1-piperidinyl)-4-oxo-quinoline-3-carboxylic acid] | 6.25 (≈ 14.1 µM) | 1.56 (≈ 3.52 µM) | – | > 6.25 | –
23 | CCOC(=O)NC1CCN(c2c(F)c(N)c3c(=O)c(C(=O)O)cn(C4CC4)c3c2OC)CC1(C)C (stereo not drawn) [Compound 70, 5-Amino-1-cyclopropyl-6-fluoro-1,4-dihydro-8-methoxy-7-(4-ethoxycarbonylamino-3,3-dimethyl-1-piperidinyl)-4-oxo-quinoline-3-carboxylic acid] | 0.4 (≈ 0.815 µM) | 0.05 (≈ 0.102 µM) | – | 0.2 (≈ 0.408 µM) | –
24 | COc1c(N2CCC(NC3CC3)C(C)(C)C2)c(F)c(N)c2c(=O)c(C(=O)O)cn(C3CC3)c12 (stereo not drawn) [Compound 75, 5-Amino-1-cyclopropyl-6-fluoro-1,4-dihydro-8-methoxy-7-(4-cyclopropylamino-3,3-dimethyl-1-piperidinyl)-4-oxo-quinoline-3-carboxylic acid] | 0.2 (≈ 0.436 µM) | 0.05 (≈ 0.109 µM) | – | 0.2 (≈ 0.436 µM) | –
25 | COc1c(N2CC(C)C(O)C(C)C2)c(F)cc2c(=O)c(C(=O)O)cn(C3CC3)c12 (stereo not drawn) [Compound 145, 1-Cyclopropyl-6-fluoro-1,4-dihydro-8-methoxy-7-(4-hydroxy-3,5-dimethyl-1-piperidinyl)-4-oxo-quinoline-3-carboxylic acid] | 1.56 (≈ 3.86 µM) | 0.025 (≈ 0.0618 µM) | – | 0.4 (≈ 0.989 µM) | –
26 | COc1c(N2CC(C)C(O)C(C)(C)C2)c(F)cc2c(=O)c(C(=O)O)cn(C3CC3)c12 (stereo not drawn) [Compound 147, 1-Cyclopropyl-6-fluoro-1,4-dihydro-8-methoxy-7-(4-hydroxy-3,3,5-trimethyl-1-piperidinyl)-4-oxo-quinoline-3-carboxylic acid] | 0.4 (≈ 0.956 µM) | < 0.006 | – | 0.1 (≈ 0.239 µM) | –
